Assay results from the supplement of paper PMC9663587.

Tests used:
Assay in all cases: GRmax, 72 h; higher = less effect;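 note: breast cell lines in 384-well plates, nine doses across a 10^4 range, Dye Drop imaging of viable cells vs DMSO and time-zero plates, GR 0 means no net growth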
HCC1954 = tested on: HCC1954
ZR751 = tested on: ZR751
HCC1395 = tested on: HCC1395
SUM185PE = tested on: SUM185PE
MCF7 = tested on: MCF7
SKBR3 = tested on: SKBR3
SUM44PE = tested on: SUM44PE
HCC70 = tested on: HCC70
UACC893 = tested on: UACC893
MDAMB453 = tested on: MDAMB453
HS578T = tested on: HS578T
SUM149 = tested on: SUM149

Structure (SMILES)	GRmax, 72 h (HCC1954) [GR]	GRmax, 72 h (ZR751) [GR]	GRmax, 72 h (HCC1395) [GR]	GRmax, 72 h (SUM185PE) [GR]	GRmax, 72 h (MCF7) [GR]	GRmax, 72 h (SKBR3) [GR]	GRmax, 72 h (SUM44PE) [GR]	GRmax, 72 h (HCC70) [GR]	GRmax, 72 h (UACC893) [GR]	GRmax, 72 h (MDAMB453) [GR]	GRmax, 72 h (HS578T) [GR]	GRmax, 72 h (SUM149) [GR]
CC(C)NC[C@@H](C(=O)N1CCN(c2ncnc3c2[C@H](C)C[C@H]3O)CC1)c1ccc(Cl)cc1 [Ipatasertib/GDC0068] (max 10 µM)	0.251	0.608	0.19	0.455	0.25	0.356	-0.0416	-0.262	-0.794	-0.155	0.442	0.291
C=CC(=O)Nc1ccc(C(=O)Nc2[nH]nc3c2CN(C(=O)N[C@H](CN(C)C)c2ccccc2)C3(C)C)cc1 [YKL-5-124] (max 10 µM)	-0.14	0.13	-0.267	-0.0052	-0.268	-0.602	-0.448	-0.835	-0.626	-0.503	-0.445	-0.104
CCc1cnn2c(NCc3ccc[n+]([O-])c3)cc(N3CCCC[C@H]3CCO)nc12 (max 1 µM)	-0.464	-0.406	-0.497	0.18	-0.249	-0.621	-0.925	-0.909	-0.641	-0.257	-0.239	-0.566
CC(=O)c1c(C)c2cnc(Nc3ccc(N4CCN(CCOCCOCCOCCNC(=O)COc5cccc6c5C(=O)N(C5CCC(=O)NC5=O)C6=O)CC4)cn3)nc2n(C2CCCC2)c1=O (configuration not stated) [BSJ-03-123] (max 10 µM)	0.0033	0.245	-0.171	0.665	-0.323	-0.347	0.289	-0.513	0.289	-0.022	-0.263	-0.0089
CN(C)C/C=C/C(=O)Nc1ccc(O[C@@H]2CCC[C@@H](Nc3ncc(Cl)c(-c4c[nH]c5ccccc45)n3)C2)cc1 [BSJ-01-175] (max 10 µM)	-0.652	-0.346	-0.862	-0.47	-0.627	-0.769	-0.873	-0.884	-0.904	-0.723	-0.694	-0.617
Nc1ccc(-c2ccc3ncc4ccc(=O)n(-c5cccc(C(F)(F)F)c5)c4c3c2)cn1 [Torin2] (max 1 µM)	-0.328	-0.0631	-0.142	-0.0832	-0.133	-0.342	-0.556	-0.555	-0.828	-0.814	-0.217	0.0058
CC[C@@H]1C(=O)N(C)c2cnc(Nc3ccc(C(=O)N[C@H]4CC[C@H](N5CCN(CC6CC6)CC5)CC4)cc3OC)nc2N1C(C)C [Volasertib/BI6727] (max 1 µM)	-0.154	-0.17	-0.296	0.28	-0.0338	-0.349	-0.288	-0.205	-0.424	-0.201	-0.312	-0.297
O=C1NC(=O)[C@@H](c2cn3c4c(cccc24)CCC3)[C@@H]1c1c[nH]c2ccccc12 [Tivantinib/ARQ197] (max 10 µM)	-0.385	-0.0475	-0.483	0.169	-0.0512	-0.352	-0.338	-0.566	-0.248	-0.0719	-0.32	-0.224
CN1CC[C@H](c2c(O)cc(O)c3c(=O)cc(-c4ccccc4Cl)oc23)[C@H](O)C1 [Flavopiridol] (max 1 µM)	-0.526	-0.353	-0.644	0.155	-0.291	-0.656	-0.573	-0.811	-0.464	-0.188	-0.256	-0.605
Cc1nc(Nc2ncc(C(=O)Nc3c(C)cccc3Cl)s2)cc(N2CCN(CCO)CC2)n1 [Dasatinib] (max 10 µM)	0.274	-0.213	-0.337	0.388	0.157	0.081	0.47	-0.579	0.706	0.549	-0.244	-0.172
Cc1nc(-c2cn3c(n2)-c2ccc(-c4cnn(C(C)(C)C(N)=O)c4)cc2OCC3)n(C(C)C)n1 [Taselisib/GDC0032] (max 10 µM)	-0.363	-0.0193	-0.0177	-0.367	-0.255	-0.207	-0.392	-0.685	-0.898	-0.635	-0.0179	-0.224
Cc1nc(NC(=O)N2CCC[C@H]2C(N)=O)sc1-c1ccnc(C(C)(C)C(F)(F)F)c1 [Alpelisib/BYL719] (max 10 µM)	-0.341	0.577	0.637	0.15	0.0207	-0.143	-0.341	0.0981	-0.757	-0.307	0.531	0.848
COc1cc(N2CCN(C)CC2)ccc1Nc1ncc2c(n1)N(C)c1ccccc1C(=O)N2CC(F)(F)F [FMF-03-146-1]	0.808	0.939	0.64	0.833	0.78	0.676	0.946	0.926	0.987	0.803	0.944	0.971
CN(C)CC[C@H](CSc1ccccc1)Nc1ccc(S(=O)(=O)NC(=O)c2ccc(N3CCN(Cc4ccccc4-c4ccc(Cl)cc4)CC3)cc2)cc1[N+](=O)[O-] [ABT-737] (max 10 µM)	0.496	0.886	0.861	-0.294	0.727	0.947	-0.0028	-0.0638	0.49	0.152	0.775	-0.28
CO[C@@H](C)Cn1c(=O)n(C)c2cnc3ccc(-c4cncc(C(C)(C)O)c4)cc3c21 (max 10 µM)	-0.346	-0.117	-0.0122	-0.0606	-0.248	-0.502	-0.855	-0.755	-0.84	-0.578	0.0776	-0.0342
CN(C)C/C=C/C(=O)Nc1ccc(C(=O)Nc2cccc(Nc3ncc(Cl)c(-c4c[nH]c5ccccc45)n3)c2)cc1 [THZ1] (max 1 µM)	-0.507	-0.163	-0.784	-0.219	-0.469	-0.789	-0.292	-0.944	-0.525	-0.256	-0.371	-0.52
CS(=O)(=O)N1CCN(Cc2cc3nc(-c4cccc5[nH]ncc45)nc(N4CCOCC4)c3s2)CC1 [Pictilisib/GDC0941] (max 10 µM)	-0.227	-0.0806	-0.0143	0.0142	-0.159	-0.127	-0.205	-0.597	-0.878	-0.374	0.0345	0.341
CN1CCN(C(=O)c2ccc3cc(CCNc4ncnc5ccc(C#N)cc45)ccc3c2)CC1 [senexin b] (max 10 µM)	0.455	0.845	0.307	0.444	0.474	0.797	0.309	0.458	0.71	0.148	0.765	0.747
CC1(N)CCN(c2cnc(-c3cccc(Cl)c3Cl)c(N)n2)CC1 [SHP099] (max 10 µM)	0.569	0.829	0.548	0.457	0.847	1.02	0.807	0.708	0.703	0.726	0.632	0.866
CNC(=O)c1cccc(-c2ccc3c(N4CCOC[C@@H]4C)nc(N4CCOC[C@@H]4C)nc3n2)c1 [AZD2014] (max 10 µM)	0.0889	-0.0477	0.274	0.244	-0.0281	-0.0488	-0.315	0.0453	-0.164	0.134	0.273	0.418
O=C(c1cc(Cc2n[nH]c(=O)c3ccccc23)ccc1F)N1CCN(C(=O)C2CC2)CC1 [Olaparib/AZD2281] (max 10 µM)	0.527	0.801	0.0945	0.75	0.514	0.565	0.803	0.719	0.549	-0.0358	0.444	0.205
O=C1NC(=NCc2cccs2)SC1=Cc1ccc2ncccc2c1 [R0-3306] (max 10 µM)	-0.0775	0.51	-0.235	0.827	0.067	-0.0433	-0.266	-0.204	0.376	0.0452	-0.0503	-0.171
CC(C)n1nc(-c2ccc3oc(N)nc3c2)c2c(N)ncnc21 [INK128/MLN0128] (max 3.162 µM)	-0.083	-0.0856	-0.0258	0.139	-0.045	-0.506	-0.523	-0.162	-0.483	-0.468	-0.0708	0.268
Nc1cc(C(F)(F)F)c(-c2cc(N3CCOCC3)nc(N3CCOCC3)n2)cn1 [Buparlisib/NVP-BKM120] (max 10 µM)	-0.458	-0.226	-0.506	0.0382	-0.269	-0.373	-0.611	-0.727	-0.833	-0.607	-0.343	-0.331
COc1cccc(OCCCN)c1-c1cc(Nc2cnc(C#N)cn2)n[nH]1	-0.312	0.384	-0.491	0.559	0.211	-0.406	-0.79	-0.639	0.365	-0.513	-0.359	-0.453
Cc1nn(C)c(COc2ccc(N3CCN(S(=O)(=O)N(C)C)CC3)cc2)c1-c1cccc2c(CCCOc3cccc4ccccc34)c(C(=O)O)n(CCN3CCOCC3)c12 (max 10 µM)	0.884	1.03	0.859	0.532	0.877	0.627	-0.463	0.938	0.763	0.933	0.942	0.391
